Experimental data from PMC11674187, “Inhibitory Effects of Cenobamate on Multiple Human Cardiac Ion Channels and Possible Arrhythmogenic Consequences” (Biomolecules, 2024).
Several values for one entry are separate records, joined by “and”; a condition that tells them apart may be missing. Identical values can stand only once.

Columns and labels:
[1] = system: Ncyte® vCardiomyocytes; test: Amphotericin-perforated whole-cell recordings on hiPSC-CM (current clamp and voltage clamp); type: cell-based, human; conditions: cenobamate 200 µM
Procedure: Experiments were performed on HEK293T cell lines with persistent/inducible expression of different human cardiac ion channel isoforms: hNav1.5 and hKv7.1 + minK (Anaxon AG, Bern, Switzerland), hCav1.2 (α1c + β2 + α2δ1) (B’SYS GmbH, Witterswil, Switzerland), and hKv11.1 (hERG) (Cytocentrics Bioscience GmbH, Rostock, Germany). The cell lines were grown in standard conditions (37 °C, 5% CO2, 90% humidity) in DMEM:F12 medium (D8900, Sigma-Aldrich, Burlington, MA, USA) buffered with 15 mM HEPES, containing 3.15 g/L D-glucose and 0.055 g/L sodium pyruvate, supplemented with 1.2 g/L sodium bicarbonate, 10% fetal bovine serum (F2442, Sigma-Aldrich, Burlington, MA, USA), 2 mM L-glutamine (G7513, Sigma-Aldrich, Burlington, MA, USA), 1% penicillin–streptomycin (P4333, Sigma-Aldrich, Burlington, MA, USA), and with specific antibiotics for selection of transfected cells or induction of gene expression according to manufacturers’ instructions. The medium was changed every 2–3 days and the cells were passed weekly upon detachment with trypsin–EDTA solution. All cell culture media and solutions were sterile filtered with 0.22 μm polyvinylidene fluoride filters. Ncyte® vCardiomyocytes (Ncardia, Leiden, The Netherlands) were cultured in 24-well plates precoated with bovine fibronectin, following manufacturer’s instructions. For the experiments, cardiomyocytes were detached as described previously and plated on ϕ 10 mm glass coverslips, like the other cell lines.
Experiments on Ncyte® vCardiomyocytes were performed via an amphotericin-perforated whole-cell approach, filling the pipettes with solution containing amphotericin B 300 µg/mL except for a small region near the tip that contained amphotericin-free solution. The voltage-clamp and current-clamp protocols were similar to those used in our previous studies; the following protocols were recorded in sequence before and at 3 min after application of cenobamate in the bath to a final concentration of 200 µM: • - Nav standard protocol: holding −90 mV, depolarizing step at −10 mV lasting 40 ms; • - Cav-Nav separation protocol: holding −80 mV, first step at −20 mV 200 ms, intermediate step at −40 mV 100 ms, second step at −50 mV to +50 mV 200 ms, in 10 mV increments in consecutive sweeps; • - hERG standard protocol: holding −70 mV, a brief preliminary step at −50 mV 100 ms, first step at +40 mV 2000 ms, second step at −120 mV/−50 mV 2000 ms (in consecutive sweeps); • - A double voltage ramp protocol: holding −80 mV, first ramp from −120 mV to +80 mV in 2000 ms, second ramp from +80 mV back to −120 mV in 2000 ms, sweeps repeated at 10 s intervals; • - A current-clamp protocol with external pacing: 3 current stimuli of 2 nA amplitude, duration 0.5 ms (up to 2.5 ms in some experiments) applied at 3 s intervals, first stimulus at 500 ms after start of recording; in cells with spontaneous pace-making, this phenomenon was suppressed by applying a steady hyperpolarizing current of −10 pA or −20 pA. […]

[2] = ref https://go.drugbank.com/drugs/DB06119; cited from earlier work

NC(=O)O[C@@H](Cn1ncnn1)c1ccccc1Cl [cenobamate]
%ICaL peak change, mean (Table S8) ([1]; hiPSC-CM): 35.16% | %INa peak change, mean (Table S8) ([1]; hiPSC-CM): 27.43% | %If change, mean (Table S8) ([1]; hiPSC-CM): 19.89% | APD90 ceno, mean (Table S8) ([1]; initial mean 1212.99 ms): 619.83 ms | average APD90 shortening (%APD90 change) ([1]; mean (SD), n = 5): 28.55% and 28.6 ± 13.5% | logP [2]: 1.66 | physiological charge [2]: 0 | strongest acidic pKa [2]: 14.28 | strongest basic pKa [2]: −1.7
